Key:
[1] = system: Mycobacterium tuberculosis Erdman (autoluminescent); assay: total FIC50 (Loewe) at 50% inhibition, three-drug combination (log2); higher = more antagonistic
Protocol: (§1)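 DiaMOND equipotent three-drug combination dose responses (10 doses, 1.5- or 2-fold spacing, centred on IC90) against autoluminescent M. tuberculosis Erdman in 8 in vitro models. Read-out is OD600, or luminescence for the intracellular and dormancy models, normalised to untreated wells. Hill-fit Einf, AUC25 and GRinf are potency metrics; FIC50 and FIC90 are total Loewe fractional inhibitory concentrations as log2 (negative = synergy).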

[2] = system: Mycobacterium tuberculosis Erdman (autoluminescent); assay: total FIC90 (Loewe) at 90% inhibition, three-drug combination (log2); higher = more antagonistic
Protocol: as §1

[3] = system: Mycobacterium tuberculosis Erdman (autoluminescent); assay: Einf, fitted maximum growth inhibition of three-drug combination (fraction); higher = stronger maximal inhibition
Protocol: as §1

[4] = system: Mycobacterium tuberculosis Erdman (autoluminescent); assay: AUC25, normalised area under dose response up to IC25 (three-drug combination) (fraction (0-1)); higher = more potent at low dose
Protocol: as §1

[5] = system: Mycobacterium tuberculosis Erdman (autoluminescent); assay: GRinf, maximum normalised growth rate inhibition (three-drug combination) (unitless (-1 to 1)); higher = less effect (negative = killing)
Protocol: as §1

CC[C@@H](CO)NCCN[C@@H](CC)CO [ethambutol] + NNC(=O)c1ccncc1 [isoniazid] + CO[C@H]1/C=C/O[C@@]2(C)Oc3c(C)c(O)c4c(O)c(c(/C=N/N5CCN(C)CC5)c(O)c4c3C2=O)NC(=O)/C(C)=C\C=C\[C@H](C)[C@H](O)[C@@H](C)[C@@H](O)[C@@H](C)[C@H](OC(C)=O)[C@@H]1C [rifampicin]
Conditions	AUC25, [4]	Einf, [3]	GRinf, [5]	total FIC50, [1]	total FIC90, [2]
in vitro model: acidic pH 5.7, time point: constant (~7 days, model-specific)	0.104	0.899	-0.0987	-0.427	–
in vitro model: acidic pH 5.7, time point: terminal (~4-5 doublings, model-specific)	0.0385	0.97	-0.0837	0.126	-0.549
in vitro model: intracellular J774, time point: constant = terminal	–	0.967	-0.321	–	-2.19

Conditions	AUC25, [4]	Einf, [3]	GRinf, [5]	total FIC50, [1]	total FIC90, [2]
in vitro model: butyrate, time point: constant (~7 days, model-specific)	0.0804	0.936	-0.0122	0.2	–
in vitro model: butyrate, time point: terminal (~4-5 doublings, model-specific)	0.0612	0.972	-0.0091	0.238	-0.403
in vitro model: cholesterol 0.05 mM, time point: constant (~7 days, model-specific)	0.0636	0.617	0.000894	-0.456	–
in vitro model: cholesterol 0.05 mM, time point: terminal (~4-5 doublings, model-specific)	0.0895	0.867	0.194	0.41	–
in vitro model: cholesterol-high 0.2 mM, time point: constant (~7 days, model-specific)	0.0326	0.915	-0.23	0.757	–
in vitro model: cholesterol-high 0.2 mM, time point: terminal (~4-5 doublings, model-specific)	0.0525	0.997	-0.778	0.99	0.871
in vitro model: dormancy (butyrate + nitrate, low O2), time point: constant (~7 days, model-specific)	0.0838	0.872	0.364	-0.262	–
in vitro model: dormancy (butyrate + nitrate, low O2), time point: terminal (~4-5 doublings, model-specific)	0.079	0.992	-0.165	0.173	-0.24
in vitro model: standard 7H9 glycerol, time point: constant = terminal	0.0526	0.9	0.116	0.199	–
in vitro model: valerate, time point: constant (~7 days, model-specific)	0.0369	0.853	0.000652	0.253	–
in vitro model: valerate, time point: terminal (~4-5 doublings, model-specific)	0.0264	0.932	0.0672	0.302	-0.619

CC[C@@H](CO)NCCN[C@@H](CC)CO [ethambutol] + NNC(=O)c1ccncc1 [isoniazid] + COc1c(N2C[C@@H]3CCCN[C@@H]3C2)c(F)cc2c(=O)c(C(=O)O)cn(C3CC3)c12 [moxifloxacin]
Conditions	AUC25, [4]	Einf, [3]	GRinf, [5]	total FIC50, [1]	total FIC90, [2]
in vitro model: acidic pH 5.7, time point: constant (~7 days, model-specific)	0.0955	0.722	-0.273	-0.309	–
in vitro model: acidic pH 5.7, time point: terminal (~4-5 doublings, model-specific)	0.0597	0.933	-0.253	0.821	0.326
in vitro model: intracellular J774, time point: constant = terminal	–	0.976	-0.437	–	-0.746

Conditions	AUC25, [4]	Einf, [3]	GRinf, [5]	total FIC50, [1]	total FIC90, [2]
in vitro model: butyrate, time point: constant (~7 days, model-specific)	0.0852	0.938	-0.0732	0.655	–
in vitro model: butyrate, time point: terminal (~4-5 doublings, model-specific)	0.0658	0.974	-0.0933	0.598	0.445
in vitro model: cholesterol 0.05 mM, time point: constant (~7 days, model-specific)	0.119	0.798	-0.268	0.425	–
in vitro model: cholesterol 0.05 mM, time point: terminal (~4-5 doublings, model-specific)	0.0714	0.92	0.0114	1.23	0.826
in vitro model: cholesterol-high 0.2 mM, time point: constant (~7 days, model-specific)	0.0564	0.94	-0.315	0.863	–
in vitro model: cholesterol-high 0.2 mM, time point: terminal (~4-5 doublings, model-specific)	0.0472	1	-0.686	1.21	0.977
in vitro model: dormancy (butyrate + nitrate, low O2), time point: constant (~7 days, model-specific)	0.119	0.851	0.356	0.357	–
in vitro model: dormancy (butyrate + nitrate, low O2), time point: terminal (~4-5 doublings, model-specific)	0.125	0.986	-0.134	-0.452	0.658
in vitro model: standard 7H9 glycerol, time point: constant = terminal	0.0677	0.975	-0.186	0.205	0.328
in vitro model: valerate, time point: constant (~7 days, model-specific)	0.0908	0.876	-0.0258	0.301	–
in vitro model: valerate, time point: terminal (~4-5 doublings, model-specific)	0.0784	0.953	0.0174	0.421	0.19

CC[C@@H](CO)NCCN[C@@H](CC)CO [ethambutol] + NNC(=O)c1ccncc1 [isoniazid] + NC(=O)c1cnccn1 [pyrazinamide]
Conditions	AUC25, [4]	Einf, [3]	GRinf, [5]	total FIC50, [1]	total FIC90, [2]
in vitro model: acidic pH 5.7, time point: constant (~7 days, model-specific)	0.0856	0.755	-0.322	0.219	–
in vitro model: acidic pH 5.7, time point: terminal (~4-5 doublings, model-specific)	0.076	0.953	-0.269	0.788	-0.0381
in vitro model: intracellular J774, time point: constant = terminal	–	0.988	-0.458	–	0.0195

Conditions	AUC25, [4]	Einf, [3]	GRinf, [5]	total FIC50, [1]	total FIC90, [2]
in vitro model: butyrate, time point: constant (~7 days, model-specific)	0.0862	0.936	-0.0472	0.362	–
in vitro model: butyrate, time point: terminal (~4-5 doublings, model-specific)	0.0571	0.956	0.000899	0.43	0.0924
in vitro model: cholesterol 0.05 mM, time point: constant (~7 days, model-specific)	0.115	0.804	-0.282	–	–
in vitro model: cholesterol 0.05 mM, time point: terminal (~4-5 doublings, model-specific)	0.119	0.953	-0.377	0.635	–
in vitro model: cholesterol-high 0.2 mM, time point: constant (~7 days, model-specific)	0.0628	0.921	-0.27	0.837	–
in vitro model: cholesterol-high 0.2 mM, time point: terminal (~4-5 doublings, model-specific)	0.0569	1	-0.8	0.879	0.821
in vitro model: dormancy (butyrate + nitrate, low O2), time point: constant (~7 days, model-specific)	0.0979	0.822	0.394	-0.294	–
in vitro model: dormancy (butyrate + nitrate, low O2), time point: terminal (~4-5 doublings, model-specific)	0.104	0.972	-0.0582	0.22	1.09
in vitro model: standard 7H9 glycerol, time point: constant = terminal	0.063	0.862	0.233	0.587	–
in vitro model: valerate, time point: constant (~7 days, model-specific)	0.069	0.819	0.124	0.411	–
in vitro model: valerate, time point: terminal (~4-5 doublings, model-specific)	0.0469	0.898	0.113	0.582	0.569

CC[C@@H](CO)NCCN[C@@H](CC)CO [ethambutol] + NNC(=O)c1ccncc1 [isoniazid] + O=[N+]([O-])c1cn2c(n1)OC[C@@H](OCc1ccc(OC(F)(F)F)cc1)C2 [pretomanid]
Conditions	AUC25, [4]	Einf, [3]	GRinf, [5]	total FIC50, [1]	total FIC90, [2]
in vitro model: acidic pH 5.7, time point: constant (~7 days, model-specific)	0.121	0.841	-0.764	0.401	–
in vitro model: acidic pH 5.7, time point: terminal (~4-5 doublings, model-specific)	0.0806	0.968	-0.36	0.77	0.544
in vitro model: intracellular J774, time point: constant = terminal	–	0.996	-0.562	–	-0.84

Conditions	AUC25, [4]	Einf, [3]	GRinf, [5]	total FIC50, [1]	total FIC90, [2]
in vitro model: butyrate, time point: constant (~7 days, model-specific)	0.0954	0.941	-0.0462	0.443	–
in vitro model: butyrate, time point: terminal (~4-5 doublings, model-specific)	0.0496	0.966	-0.0497	0.439	0.012
in vitro model: cholesterol 0.05 mM, time point: constant (~7 days, model-specific)	0.11	0.715	-0.203	0.668	–
in vitro model: cholesterol 0.05 mM, time point: terminal (~4-5 doublings, model-specific)	0.0657	0.858	0.0963	0.823	–
in vitro model: cholesterol-high 0.2 mM, time point: constant (~7 days, model-specific)	0.0675	0.881	-0.113	1.17	–
in vitro model: cholesterol-high 0.2 mM, time point: terminal (~4-5 doublings, model-specific)	0.0388	0.996	-0.623	1.18	1.18
in vitro model: dormancy (butyrate + nitrate, low O2), time point: constant (~7 days, model-specific)	0.162	0.915	0.106	0.0212	–
in vitro model: dormancy (butyrate + nitrate, low O2), time point: terminal (~4-5 doublings, model-specific)	0.105	0.982	-0.213	0.237	0.398
in vitro model: standard 7H9 glycerol, time point: constant = terminal	0.0742	0.924	0.0732	0.498	–
in vitro model: valerate, time point: constant (~7 days, model-specific)	0.109	0.867	0.0667	0.146	–
in vitro model: valerate, time point: terminal (~4-5 doublings, model-specific)	0.0768	0.92	0.0915	0.406	–

CC[C@@H](CO)NCCN[C@@H](CC)CO [ethambutol] + O=[N+]([O-])c1cn2c(n1)OC[C@@H](OCc1ccc(OC(F)(F)F)cc1)C2 [pretomanid] + CO[C@H]1/C=C/O[C@@]2(C)Oc3c(C)c(O)c4c(O)c(c(/C=N/N5CCN(C6CCCC6)CC5)c(O)c4c3C2=O)NC(=O)/C(C)=C\C=C\[C@H](C)[C@H](O)[C@@H](C)[C@@H](O)[C@@H](C)[C@H](OC(C)=O)[C@@H]1C [rifapentine]
Conditions	AUC25, [4]	Einf, [3]	GRinf, [5]	total FIC50, [1]	total FIC90, [2]
in vitro model: acidic pH 5.7, time point: constant (~7 days, model-specific)	0.109	0.881	-0.167	-0.27	–
in vitro model: acidic pH 5.7, time point: terminal (~4-5 doublings, model-specific)	0.0593	0.965	-0.136	-0.17	-0.213
in vitro model: intracellular J774, time point: constant = terminal	–	0.983	-0.509	–	-1.96

Conditions	AUC25, [4]	Einf, [3]	GRinf, [5]	total FIC50, [1]	total FIC90, [2]
in vitro model: butyrate, time point: constant (~7 days, model-specific)	0.0719	0.917	0.00142	0.274	–
in vitro model: butyrate, time point: terminal (~4-5 doublings, model-specific)	0.0544	0.96	0.0016	0.212	-0.372
in vitro model: cholesterol 0.05 mM, time point: constant (~7 days, model-specific)	0.103	0.743	-0.355	0.946	–
in vitro model: cholesterol 0.05 mM, time point: terminal (~4-5 doublings, model-specific)	0.0797	0.923	-0.204	1.14	–
in vitro model: cholesterol-high 0.2 mM, time point: constant (~7 days, model-specific)	0.0331	0.825	-0.056	1.15	–
in vitro model: cholesterol-high 0.2 mM, time point: terminal (~4-5 doublings, model-specific)	0.0353	1	-0.701	1.34	1.42
in vitro model: dormancy (butyrate + nitrate, low O2), time point: constant (~7 days, model-specific)	0.115	0.832	0.245	0.472	–
in vitro model: dormancy (butyrate + nitrate, low O2), time point: terminal (~4-5 doublings, model-specific)	0.0993	0.964	-0.137	0.154	0.383
in vitro model: standard 7H9 glycerol, time point: constant = terminal	0.0595	0.912	0.0905	0.054	–
in vitro model: valerate, time point: constant (~7 days, model-specific)	0.0932	0.882	-0.0094	0.185	–
in vitro model: valerate, time point: terminal (~4-5 doublings, model-specific)	0.0526	0.938	0.0245	0.593	0.229

From the supplement of paper PMC8617591
